Results on five substances are retold here after US20120022143A1, “RNA Interference Mediated Inhibition of the Thymic Stromal Lymphopoietin (TSLP) Gene Expression Using Short Interfering Nucliec Acid (siNA)” (Merck Sharp & Dohme Corp, priority 2009, published 2012).

[invAb] = inverted abasic unit; d = 2'-deoxy (DNA); m = 2'-O-methyl; r = 2'-OH (RNA); f = 2'-fluoro

Data set [1] relates to TSLP mRNA. Description: Initial screening: TSLP mRNA knock-down by RT-PCR (Taqman) after RNAiMax transfection of NHLF cells. It counts as cell-based. As to conditions: 10 nM siNA, human NHLF cells; for % KD TSLP: 24 hrs post-transfection, relative to non-targeting control, normalized to GAPDH, mean ± s.d. from 2 experiments; for % KD TSLP (10 nM): mean ± s.d. (Table 5). On the technique in general: Real-time PCR tracks product formation cycle by cycle.

The subject of a further data set is mTSLP mRNA. As to the kind of experiment: Initial screening: mouse TSLP mRNA knock-down by RT-PCR (Taqman) after RNAiMax transfection of NIH 3T3 cells. It counts as cell-based. As to conditions: 10 nM siNA, 24 hrs post-transfection, mean ± s.d., summary from 2 screens.
In data set [2] the test system is TSLP mRNA. As to the kind of experiment: Dose response curves of TSLP mRNA knock-down in NHLF cells. As to conditions: human NHLF cells, mean ± s.d.; for IC50: TSLP mRNA knock-down, 12 concentrations from 0.083 fM to 30 nM; for Maximum % KD in DRC: 12 concentrations of siNA from 0.083 fM to 30 nM. It counts as cell-based. How it is done: NHLF (human; Lonza cat# CC-2512): Cells were cultured at 37° C. in the presence of 5% CO2 and grown Fibroblast Basal Medium (Lonza cat# CC-3β2) supplemented growth factors (provided with the kit) and 100 μg/mL of streptomycin and 100 U/mL penicillin.
Dose response curves were carried out in a similar fashion in 96-well plates, while maintaining a constant amount of RNAiMax in each transfection.
RNA was extracted from a 96-well plate using the TaqMan® Gene Expression Cells-to-CT™ Kit (Cat# 4399002) with a modified protocol. Briefly, a 60 uL (1 plate) or 110 uL (2 plates) of the Lysis Solution with DNase I was dispensed into each well of the Lysis Buffer Plate (twin.tec full skirt plate). The lysis buffer and stop plates were stored at 4° C. until the cells were washed.
Each well of the reverse transcription plate required 10 uL of 2× reverse transcriptase Buffer, luL of 20× reverse transcription enzyme and 2 uL of nuclease-free water. The reverse transcription master mix was prepared by mixing 2× reverse transcription buffer, 20× reverse transcription enzyme mix, and nuclease-free water. 13 uL of the reverse transcription master mix was dispensed into each well of the reverse transcription plate (semi-skirted). A separate reverse transcription plate was prepared for each cell plate. The plate was loaded onto a Biomek NX or Biomek FX Dual-96 and the Biomek method was run. The program is programmed to automatically added 7 uL of lysate from the cell lysis procedure described above into each well of the reverse transcription plate. The plate is sealed and spun on a centrifuge (1000 rpm for 30 seconds) to settle the contents to the bottom of the reverse transcription plate. The plate is placed in a thermocycler at 37° C. for 60 min, 95° C. for 5 min, and 4° C. until the plate is removed from the thermocycler. Upon removal, if not used immediately, the plate was frozen at −20° C.
A series of probes and primers were used to detect the various mRNA transcripts of the genes of TSLP, IL-8 and GAPDH in human cell lines. All the Taqman probes and primers for the experiments here-in described were supplied as pre-validated sets by Applied Biosystems, Inc. (see Table 2). The assays were performed on an ABI 7900 instrument, according to the manufacturer's instructions.
A TaqMan Gene Expression Master Mix (provided in the Cells-to-CT™, Applied Biosystems, Cat #4399002) was used. The PCR reactions were carried out at 50° C. for 2 min, 95° C. for 20 min followed by 40 cycles at 95° C. for 15 secs and 60° C. for 1 min.
The expression level of the gene of interest and % knock-down was calculated using Comparative Ct method: […]
All calculations of IC50s were performed using SigmaPlot 10.0 software. The data were analyzed using the sigmoidal dose-response (variable slope) equation for simple ligand binding. In all of the calculations of the % knock-down, the calculation was made relative to the normalized level of expression of the gene of interest in the samples treated with the non-targeting control (Ctrl siNA) unless otherwise indicated.
Summary data, as to potency and efficacy for TSLP mRNA knock-down in human cells for certain siNA molecules, is presented in Table 5. Cells for the experiments were treated with 12 concentrations of siNA ranging from 0.083 fM to 30 nM. All of the data is presented as % knockdown of TSLP normalized against the expression of GAPDH mRNA expression level. Then the data was determined as a % knockdown relative to the non-targeting control siNA.

The next data set relates to TSLP protein. Description: TSLP ELISA in IL-1β/TNFα-stimulated NHLF cells. It counts as cell-based, human. As to conditions: relative to UC3 siRNA at matched concentration, siNA range 10 nM-0.00015 nM, concentration of the value not stated, mean ± s.d. How it is done: In a 96-well plate, 57,500 NHLFcells/well were seeded in 100 uL of complete growth media and incubated overnight at 37° C. with 5% CO2. The cells were transfected with siNAs using RNAiMax (Invitrogen, Cat#13778-150); final concentration of siNAs is 10 nM-0.00015 nM. The amount of RNAiMax in each well is 0.3 uL. The siNAs were incubated for 6 hours. The medium was replaced with 95 uL of fresh complete growth medium and 5 uL/well of IL-1β/TNFα at 10 ng/ml final concentration was added. The cells were incubated for 24 hours. 95 uL of the medium from each well was collected into a separate 96-well plate. The samples were frozen immediately at −80° C. until ready the assay was ready to be performed.
ELISA was performed using DuoSet ELISA Development System (R&D systems, Cat # DY1398) according to the manufacturer's instructions. A seven point standard curve using 2-fold serial dilution in reagent diluent buffer and a high standard of 1000 pg/ml was used. The samples were not diluted. Absorbance was obtained at […] (LM1) and […] (LM2) and the difference (LM1-LM2) was recorded on a SpectraMax plate reader (Molecular Devices) within 30 minutes of stopping the reaction.
Various siNAs were also evaluated for their potential to knock-down TSLP protein using an ELISA assay. Six siNAs were tested in an TSLP ELISA assay across a range of concentrations of siNAs and the level of reduction of protein was determined relative to treatment of the cells with identical concentrations of the negative universal control siNA (UC3) (see Table 6).

Usually IC50 stands for the concentration at which inhibition is half-maximal. As to “25436-DC: siNA duplex: sense B GccAAGuuuuAAAuAuuAu TTB (SEQ ID NO: 55), antisense AUAAuAuuuAAAAcuuGGcUU (SEQ ID NO: 56) (sense GCCAAGUUUUAAAUAUUAUTT; antisense AUAAUAUUUAAAACUUGGCUU; sense: DNA at AGT, 2'-fluoro at CU, [invAb] at 5' end, 3' end, backbone not given here; antisense: sugars from the 5' end rrrmfmfffmmmmfffmmfmm, backbone not given here)”, in the data set on TSLP mRNA [1], the “% KD TSLP” value is 90 ± 5.1% and the “% KD TSLP (10 nM)” value was found to be 90 ± 5.1%. In addition, the “% KD mTSLP NIH3T3” value with mTSLP mRNA was 19.3 ± 6.1%. In the data set on TSLP mRNA [2], half-maximal inhibition (IC50) was put at 4.1 ± 1.6 pM and the “Maximum % KD in DRC” value stood at 86 ± 3%. Besides, the “% Reduction TSLP Protein” value in the data set with TSLP protein worked out at 71.7 ± 20.3%.

In the case of “25438-DC: siNA duplex: sense B GAAGcAAuuuGAAAuAAuu TTB (SEQ ID NO: 59), antisense AAUuAuuucAAAuuGcuucUU (SEQ ID NO: 60) (sense GAAGCAAUUUGAAAUAAUUTT; antisense AAUUAUUUCAAAUUGCUUCUU; sense: DNA at AGT, 2'-fluoro at CU, [invAb] at 5' end, 3' end, backbone not given here; antisense: sugars from the 5' end rrrfmffffmmmffmffffmm, backbone not given here)”, in the data set on TSLP mRNA [1], the “% KD TSLP” value is recorded as 85 ± 6.8% and the “% KD TSLP (10 nM)” value was 85 ± 6.8%. Also, in the data set with mTSLP mRNA, the “% KD mTSLP NIH3T3” value amounted to 9.8 ± 12.2%. For the same substance, in the data set on TSLP mRNA [2], the 50% inhibitory concentration (IC50) came out at 4.1 ± 1.2 pM and the “Maximum % KD in DRC” value was found to be 79 ± 4%. In addition, the “% Reduction TSLP Protein” value with TSLP protein stood at 51.9 ± 14.1%.

As for “25446-DC: siNA duplex: sense B cAGAAGAGuuucuuAAcuu TTB (SEQ ID NO: 75), antisense AAGuuAAGAAAcucuucuGUU (SEQ ID NO: 76) (sense CAGAAGAGUUUCUUAACUUTT; antisense AAGUUAAGAAACUCUUCUGUU; sense: DNA at AGT, 2'-fluoro at CU, [invAb] at 5' end, 3' end, backbone not given here; antisense: sugars from the 5' end r3 f2 m6 f7 m3, backbone not given here)”, in the data set on TSLP mRNA [1], the “% KD TSLP” value is 84 ± 3.6% and the “% KD TSLP (10 nM)” value is listed as 84 ± 3.6%. Besides, the “% KD mTSLP NIH3T3” value in the data set with mTSLP mRNA is given as −32.1 ± 18.3%. Further, in the data set with TSLP mRNA [2], the IC50 stood at 9.1 ± 2.4 pM and the “Maximum % KD in DRC” value is recorded as 85 ± 2%. Also, the “% Reduction TSLP Protein” value in the data set with TSLP protein is 64.7 ± 3.5%.

On to “25449-DC: siNA duplex: sense B AGAAGAGuuucuuAAcuuA TTB (SEQ ID NO: 81), antisense UAAGuuAAGAAAcucuucuUU (SEQ ID NO: 82) (sense AGAAGAGUUUCUUAACUUATT; antisense UAAGUUAAGAAACUCUUCUUU; sense: sugars from the 5' end d7 f6 d2 f3 d3, [invAb] at 5' end, 3' end, backbone not given here; antisense: sugars from the 5' end rrrmffmmmmmmfffffffmm, backbone not given here)”, for which, in the data set with TSLP mRNA [1], the “% KD TSLP” value is reported as 84 ± 2.1% and the “% KD TSLP (10 nM)” value is listed as 84 ± 2.1%. Besides, in the data set with mTSLP mRNA, the “% KD mTSLP NIH3T3” value worked out at 52.9 ± 11.8%. Moreover, in the data set on TSLP mRNA [2], half-maximal inhibition (IC50) was put at 10.2 ± 3.1 pM and the “Maximum % KD in DRC” value is 82 ± 1%. For the same substance, the “% Reduction TSLP Protein” value in the data set with TSLP protein came to 45 ± 23.2%.

With “25450-DC: siNA duplex: sense B AuuuuGuGAAcAcuuuuGA TTB (SEQ ID NO: 83), antisense UCAAAAGuGuucAcAAAAuUU (SEQ ID NO: 84) (sense AUUUUGUGAACACUUUUGATT; antisense UCAAAAGUGUUCACAAAAUUU; sense: DNA at AGT, 2'-fluoro at CU, [invAb] at 5' end, 3' end, backbone not given here; antisense: sugars from the 5' end rrrmmmmfmfffmfmmmmfmm, backbone not given here)”, in the data set on TSLP mRNA [1], the “% KD TSLP” value was found to be 82 ± 9.8% and the “% KD TSLP (10 nM)” value was 82 ± 9.8%. Moreover, in the data set on mTSLP mRNA, the “% KD mTSLP NIH3T3” value is 8.8 ± 11%. For the same substance, in the data set with TSLP mRNA [2], the IC50 was found to be 1.5 ± 0.3 pM and the “Maximum % KD in DRC” value turned out to be 75 ± 2%. Also, the “% Reduction TSLP Protein” value in the data set with TSLP protein was determined as 44 ± 27.9%.
